Read-outs that look alike come from different tables or passages of the source.
Experiments:
[1] = system: MDVR cells (Enzalutamide-resistant C4-2B prostate cancer cells); experiment: MTT cell viability / IC50 assay, MDVR; format: cell-based; conditions: Homo sapiens
Protocol: Cell culture: In the following examples, unless otherwise specified, all cell lines are purchased from American Type Culture Collection and cultured in American Type Culture Collection (ATCC)-recommended media, with fetal bovine serum (FBS) to a final concentration of 10% and 1× penicillin/streptomycin at 37° C. with 5% CO2 in a cell culture incubator, unless otherwise specified. Unless otherwise specified, culture is 2D. Where culture is 3D, low attachment plates are used, with the same media. C4-2B (ATCC® CRL-3315™, human prostate cancer cells of epithelial morphology) parental cell line and drug-resistant cells derived therefrom) are cultured in RPMI-1640 with 10% FBS. MDVR cells (an Enzalutamide-resistant variety of C4-2B prostate cancer cells formed as described below) are cultured as indicated for the parental C4-2B cells. Caki-1 cells (human clear cell renal cell carcinoma cells) are cultured in ATCC-formulated McCoy's 5a Medium Modified (ATCC Catalog No. 30-2007) with 10% FBS. PC3 cells (ATCC® CRL-1435™, a human prostate cancer cell line of epithelial morphology initiated from a bone metastasis of a grade IV prostatic adenocarcinoma) are cultured in F-12K with 10% FBS. 22RV1 Prostate Cancer (PC) cells (ATCC® CRL-2505™, a human prostate carcinoma cell line of epithelial morphology) are cultured in RPMI-1640 with 10% FBS. DU145 cells (ATCC® HTB-81™, a human cell line derived from a prostate-originating brain metastase, not detectably hormone sensitive, not expressing prostate antigen; forms adenocarcinoma grade II in nude mice) are cultured in ATCC-formulated Eagle's Minimum Essential Medium (EMEM, Catalog No. 30-2003). H446 cells (ATCC® HTB-171™, a human small cell carcinoma SC lung cancer (SCLC) cell line derived from a metastatic site) are cultured in RPMI-1640 with 10% FBS. H358 cells (ATCC® CRL-5807™, a human non-small cell lung cancer (NSCLC) cell line that expresses protein and RNA of SP-A, the major lung surfactant associated protein, and produces tumors in athymic nude mice) are cultured in RPMI-1640 Medium with 10% FBS. BxPC3 cells (ATCC® CRL-1687™, an adenocarcinoma-derived pancreatic cancer cell line that expresses pancreas cancer specific antigen and carcinoembryonic antigen and forms tumors in nude mice) are cultured in RPMI-1640 with 10% FBS.
Resistant prostate cancer cell lines MDVR and AbiR: MDVR cells are Enzalutamide-resistant cells, AbiR are Abiraterone acetate resistant cells, formed from parental C4-2B prostate cancer cells as follows. A cell assay is performed exposing cells cultured as described above to various drugs indicated below for 72 hours. Parental C4-2B cells are C4-2B non-resistant cells not previously exposed to cancer drugs. Drug-resistant C4-2B cells are created by prolonged exposure to the relevant drug, i.e. Enzalutamide for MDVR, and Abiraterone acetate for AbiR cells, at initially sub-lethal and gradually increasing concentrations until resistance is achieved.
Example 1: A cell assay is performed exposing cells cultured as described above to various drugs indicated below for 24 hours unless otherwise indicated. Each of the cell lines is treated either with a THAD (e.g. DZ-DHA-ether, MI-148-bis-DHA), or for comparison, with the DHA mono-ester “DZ-DHA”; alternatively/additionally, DZ1 and/or unconjugated DHA may serve as comparants. For each cell line, the IC50 is determined for each drug in concentrations from 0 to 100 μM. […] In the controls (not shown in the figures), the cells are exposed to DMSO (vehicle) for a final concentration that equals the highest concentration of the drug tested, to a maximum concentration less than 0.1% v/v. 4 hours before culture end/SDS addition, 10 μL MTT (3-(4,5-Dimethyl-2-thiazolyl)-2,5-diphenyl-2H-tetrazolium bromide, Sigma-Aldrich) is added to wells containing the cells. At the end of culture, 100 μl 10% SDS is added and then the plate containing the cells is placed in a 37° C. cell culture incubator for 8 hours. […]

[2] = system: Abi-R cells (Abiraterone acetate resistant C4-2B cells); experiment: MTT cell viability / IC50 assay, Abi-R; format: cell-based; conditions: Homo sapiens, 48 h
Protocol: Cell culture: In the following examples, unless otherwise specified, all cell lines are purchased from American Type Culture Collection and cultured in American Type Culture Collection (ATCC)-recommended media, with fetal bovine serum (FBS) to a final concentration of 10% and 1× penicillin/streptomycin at 37° C. with 5% CO2 in a cell culture incubator, unless otherwise specified. Unless otherwise specified, culture is 2D. Where culture is 3D, low attachment plates are used, with the same media. C4-2B (ATCC® CRL-3315™, human prostate cancer cells of epithelial morphology) parental cell line and drug-resistant cells derived therefrom) are cultured in RPMI-1640 with 10% FBS. MDVR cells (an Enzalutamide-resistant variety of C4-2B prostate cancer cells formed as described below) are cultured as indicated for the parental C4-2B cells. Caki-1 cells (human clear cell renal cell carcinoma cells) are cultured in ATCC-formulated McCoy's 5a Medium Modified (ATCC Catalog No. 30-2007) with 10% FBS. […]
Each of the cell lines is treated either with a THAD (e.g. DZ-DHA-ether, MI-148-bis-DHA), or for comparison, with the DHA mono-ester “DZ-DHA”; alternatively/additionally, DZ1 and/or unconjugated DHA may serve as comparants. […] The absorbance density of the supernatant is read on a 96-well microplate reader at wavelength 595 nm. […]

SMILES | IC50 ([1]; ENZ-resistant C4-2B cells (MDVR), unit inferred, read-out: IC50 (FIG. 2B description)) [µM] | IC50 ([1]; MDVR, 24 hours, relative IC50, read-out: IC50) [µM] | IC50 ([1]; MDVR, 48 h, read-out: IC50) [µM] | IC50 [2] [µM]
C[C@@H]1CC[C@H]2[C@@H](C)C(OC(=O)CCCCCN3/C(=C/C=C4\CCCC(/C=C/C5=[N+](CCCCS(=O)(=O)[O-])c6ccccc6C5(C)C)=C4Cl)C(C)(C)c4ccccc43)O[C@@H]3OC4(C)CC[C@@H]1[C@]32OO4 (stereo in doubt) [DZ3a] | 3.8 | 3.8 to 5.9 | 5.9 | 17.1
C[C@H]1[C@@H](O)O[C@@H]2O[C@@]3(C)CC[C@H]4[C@H](C)CC[C@@H]1[C@@]24OO3 [DHA, dihydroartemisinin] | – | – | 390 | 669

Reference: patent US20230226198A1, “Artemisinin Derivatives” (DA ZEN THERANOSTICS, INC., priority 2019, published 2023)
